In patent US9107946B2, “Drug combinations comprising a DGAT inhibitor and a PPAR-agonist” (Janssen Pharmaceutica NV, priority 2008, dated 2015):

Key:
human DGAT1 = molecular target: T1, human DGAT1 (Homo sapiens, UniProt O75907); assay: DGAT1 FlashPlate assay: inhibition of DGAT1 activity in membrane preparations; format: biochemical; settings: human DGAT1 membranes from SF9 cells, [3H]-oleoylCoA, 120 min at 37° C.; for IC50: read-out: pIC50 (-logIC50, 50% inhibition of DGAT1 activity) (converted)
T1 construct: FLAG (N); made in house; host or cells: SF9 insect cells (pFastBac / baculovirus); total cell membranes
T1 sequence (O75907 1-488): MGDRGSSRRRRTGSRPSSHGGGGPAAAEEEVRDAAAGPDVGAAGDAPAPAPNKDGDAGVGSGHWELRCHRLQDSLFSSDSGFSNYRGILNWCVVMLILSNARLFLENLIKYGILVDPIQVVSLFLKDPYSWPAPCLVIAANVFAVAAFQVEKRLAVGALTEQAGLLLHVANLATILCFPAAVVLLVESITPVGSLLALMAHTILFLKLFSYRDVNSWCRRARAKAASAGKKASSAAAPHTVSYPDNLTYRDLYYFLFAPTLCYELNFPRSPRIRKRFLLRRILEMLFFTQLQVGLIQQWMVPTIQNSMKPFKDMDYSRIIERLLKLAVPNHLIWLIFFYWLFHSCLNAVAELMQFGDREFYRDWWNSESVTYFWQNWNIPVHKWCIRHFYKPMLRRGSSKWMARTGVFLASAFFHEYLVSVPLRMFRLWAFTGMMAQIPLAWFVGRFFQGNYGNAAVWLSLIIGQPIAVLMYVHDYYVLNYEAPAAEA
Source text: The inhibiting activity of compounds of Class A, Class B, Class C and Class D on DGAT1 activity was screened in a single well procedure assay using DGAT1 comprising membrane preparations and DGAT1 substrate comprising micelles and determining formed radio-active triacylglycerol coming in close proximity of a flashplate surface by radioluminescence.
Said assay is described in full detail in WO2006/067071, the content of which is incorporated herein by reference.
By DGAT1 activity is meant the transfer of coenzyme A activated fatty acids to the 3-position of 1,2-diacylglycerols, thus forming a triglyceride molecule, by enzyme DGAT1.
human DGAT1 (NM012079.2) was cloned into the pFastBac vector, containing translation start, a FLAG-tag at the N-terminus as described in literature and a viral Kozak sequence (AAX) preceding the ATG to improve expression in insect cells. Expression was done as described in literature (Cases, S., Smith, S. J., Zheng, Y., Myers H. M., Lear, S. R., Sande, E., Novak, S., Collins, C., Welch, C. B., Lusis, A. J., Erickson, S. K. and Farese, R. V. (1998) Proc. Natl. Acad. Sci. USA 95, 13018-13023.) using SF9 cells.
72h transfected SF9 cells were collected by centrifugation (13000 rpm-15 min-4° C.) and lysed in 2×500 ml lysisbuffer (0.1M Sucrose, 50 mM KCl, 40 mM KH2PO4, 30 mM EDTA pH 7.2. Cells were homogenized by cell disruptor. After centrifugation 1380 rpm-15 min-4° C. (SN discarded), pellet was resuspended in 500 ml lysisbuffer and total cell membranes collected by ultracentrifugation at 34000 rpm(100 000 g) for 60 min (4° C.). The collected membranes were resuspended in lysis buffer, divided in aliquots and stored with 10% glycerol at −80° C. until use.
• a) 1,2-dioleoyl-sn-glycerol, 10 mg/ml (1,2-diacylglycerol (DAG)) Dissolve in acetonitrile; evaporate the acetonitrile solution under nitrogen and reconstitute in chloroform at a final concentration of 10 mg/ml. • b) L-α-phosphatidylcholine, 1 mg/ml (phosphatidylcholine (PC)) • Dissolve in chloroform at a final concentration of 1 mg/ml and store at 4° C. • c) L-α-phosphatidyl-L-serine, 1 mg/ml (phophatidylserine (PS)) • Dissolve in chloroform at a final concentration of 1 mg/ml and store at 4° C. Method
Add 1 ml dioleoyl-sn-glycerol (10 mg/ml) to 10 ml of L-α-phosphatidylcholine (1 mg/ml) and 10 ml of L-α-phosphatidyl-L-serine (1 mg/ml) in a thick glass recipient. Evaporate under nitrogen and put on ice for 15 min Reconstitute in 10 ml Tris/HCl (10 mM, pH 7.4) by sonication on ice. The sonification process includes sonification cycles of 10 seconds in the sonification bath followed by 10 seconds cool down on ice and repeating this sonification cycle till a homogeneous solution is obtained (takes about 15 min). The thus obtained micelles are stored at −20° C. till later use and contain DAG at a final concentration of 1.61 mM.
• a) Assaybuffer • 50 mM Tris-HCl (pH 7.4), 150 mM MgCl2, 1 mM EDTA, 0.2% BSA. • b) N-ethylmaleimide, 5M • Dissolve 5 g into a final volume of 8 ml DMSO 100% and store at −20° C. in aliquots till later use. • c) Substrate mix (for 1 384 well plate=3840 μl) • 612 μl micelles stock (51 μM final) • 16.6 μl oleoylCoA 9.7 mM • 23 μl [^3H]-oleoylCoA (49 Ci/mmol, 500 μCi/ml) • 3188.4 μl Tris pH 7.4, 10 mM • d) Enzyme mix (for 1 384 well plate=3520 μl) (5 μg/ml) • Add 11.73 μl of DGAT membrane stock (1500 μg/ml stock) to 3508 μl assay buffer. • e) Stop mix (for 1 384 well plate=7.68 ml) (250 mM) • Add 384 μl of N-ethylmaleimide (5M) to 3.456 ml DMSO 100%, and further dilute 3.84 ml of said solution with 3.84 ml DMSO 10%. Method
DGAT activity in membrane preparations was assayed in 50 mM Tris-HCl (pH 7.4), 150 mM MgCl2, 1 mM EDTA and 0.2% BSA, containing 50 μM DAG, 32 μg/ml PC/PS and 8.4 μM [^3H]-oleoylCoA (at a specific activity of 30 nCi/well) in a final volume of 50 μl in 384-well format using the red shifted Basic Image FlashPlate™ (Perkin Elmer Cat.No. SMP400). […]

Row | melting point [°C] | IC50 (human DGAT1) [nM] | pIC50 (-logIC50, 50% inhibition of DGAT1 activity) (human DGAT1) | Structure (SMILES)
1 | 126.6 to 128.1 | 257 | – | COc1cc(CNC(=O)c2ccc(N3CCN(C(=O)Cc4ccc(CN5CCCC5)cc4Cl)CC3)cc2)cc(OC)c1 [353-Class D, 4-[4-[[2-chloro-4-(1-pyrrolidinylmethyl)phenyl]acetyl]-1-piperazinyl]-N-[(3,5-dimethoxyphenyl)methyl]-benzamide]
2 | 138.7 to 140.9 | 35.5 | – | O=C(Nc1cccc(N2CCCC2)c1)c1ccc(N2CCN(C(=O)C(O)c3ccc(CN4CCCC4)cc3Cl)CC2)cc1 (stereo not shown) [152-Class C, 4-[4-[[2-chloro-4-(1-pyrrolidinylmethyl)phenyl]hydroxyacetyl]-1-piperazinyl]-N-[3-(1-pyrrolidinyl)phenyl]-benzamide]
3 | 164 to 166 | 13.5 | – | CC(=O)N1CCN(Cc2cc(Cl)c(CC(=O)N3CCN(c4ccc(C(=O)NCc5cccc(N6CCCC6)c5)cc4)CC3)c(Cl)c2)CC1 [361-Class D, 4-[4-[[4-[(4-acetyl-1-piperazinyl)methyl]-2,6-dichlorophenyl]acetyl]-1-piperazinyl]-N-[[3-(1-pyrrolidinyl)phenyl]methyl]-benzamide]
4 | – | – | 6.97 | O=C(NCc1cccc(N2CCCC2)c1)c1ccc(N2CCN(C(=O)Cc3c(Cl)cc(CN4CCCC4)cc3Cl)CC2)cc1 [267-Class D, 4-[4-[[2,6-dichloro-4-(1-pyrrolidinylmethyl)phenyl]acetyl]-1-piperazinyl]-N-[[3-(1-pyrrolidinyl)phenyl]methyl]-benzamide]
5 | 123 to 126 | 9.12 | – | COc1cc(CNC(=O)c2ccc(N3CCN(C(=O)Cc4c(Cl)cc(CN5CCN(C(C)=O)CC5)cc4Cl)CC3)cc2)cc(OC)c1 [362-Class D, 4-[4-[[4-[(4-acetyl-1-piperazinyl)methyl]-2,6-dichlorophenyl]acetyl]-1-piperazinyl]-N-[(3,5-dimethoxyphenyl)methyl]-benzamide]
6 | 159 to 160 | 7.59 | – | CCN1CCN(Cc2cc(Cl)c(CC(=O)N3CCN(c4ccc(C(=O)NCc5cc(OC)cc(OC)c5)cc4)CC3)c(Cl)c2)CC1 [360-Class D, 4-[4-[[2,6-dichloro-4-[(4-ethyl-1-piperazinyl)methyl]phenyl]acetyl]-1-piperazinyl]-N-[(3,5-dimethoxyphenyl)methyl]-benzamide]
7 | – | – | 6.62 | COc1ccc(CC(=O)Nc2ccc(N3CCN(C(=O)Cc4c(Cl)cc(CN5CCCC5)cc4Cl)CC3)cc2)cc1 [351-Class D, N-[4-[4-[[2,6-dichloro-4-(1-pyrrolidinylmethyl)phenyl]acetyl]-1-piperazinyl]phenyl]-4-methoxy-benzeneacetamide]
8 | 240 to 241 | 28.2 | – | CCN1CCN(Cc2cc(Cl)c(CC(=O)N3CCN(c4ccc(C(=O)NCc5cccc(N6CCCC6)c5)cc4)CC3)c(Cl)c2)CC1 [359-Class D, 4-[4-[[2,6-dichloro-4-[(4-ethyl-1-piperazinyl)methyl]phenyl]acetyl]-1-piperazinyl]-N-[[3-(1-pyrrolidinyl)phenyl]methyl]-benzamide]
9 | 152 to 154 | 5.75 | – | COc1cc(CNC(=O)c2ccc(N3CCN(C(=O)Cc4c(Cl)cc(CN5CCN(S(C)(=O)=O)CC5)cc4Cl)CC3)cc2)cc(OC)c1 [364-Class D, 4-[4-[[2,6-dichloro-4-[[4-(methylsulfonyl)-1-piperazinyl]methyl]phenyl]acetyl]-1-piperazinyl]-N-[(3,5-dimethoxyphenyl)methyl]-benzamide]
10 | 224.1 to 225.4 | 316 | – | O=C(Nc1cccc(N2CCCC2)c1)c1ccc(N2CCN(C(=O)Cc3ccc(CN4CCCC4)cc3Cl)CC2)cc1 [151-Class C, 4-[4-[[2-chloro-4-(1-pyrrolidinylmethyl)phenyl]acetyl]-1-piperazinyl]-N-[3-(1-pyrrolidinyl)phenyl]-benzamide]
11 | 240 to 242 | 6.03 | – | CS(=O)(=O)N1CCN(Cc2cc(Cl)c(CC(=O)N3CCN(c4ccc(C(=O)Nc5cccc(N6CCCC6)c5)cc4)CC3)c(Cl)c2)CC1 [150-Class C, 4-[4-[[2,6-dichloro-4-[[4-(methylsulfonyl)-1-piperazinyl]methyl]phenyl]acetyl]-1-piperazinyl]-N-[3-(1-pyrrolidinyl)phenyl]-benzamide]
12 | – | 55 | – | COc1cc(CNC(=O)c2ccc(N3CCN(C(=O)C(O)c4ccc(CN5CCCC5)cc4Cl)CC3)cc2)cc(OC)c1 (stereo not shown) [357-Class D, 4-[4-[[2-chloro-4-(1-pyrrolidinylmethyl)phenyl]hydroxyacetyl]-1-piperazinyl]-N-[(3,5-dimethoxyphenyl)methyl]-benzamide]
13 | 180 to 182 | 9.12 | – | CCN1CCN(Cc2cc(Cl)c(CC(=O)N3CCN(c4ccc(C(=O)Nc5cccc(N6CCCC6)c5)cc4)CC3)c(Cl)c2)CC1 [148-Class C, 4-[4-[[2,6-dichloro-4-[(4-ethyl-1-piperazinyl)methyl]phenyl]acetyl]-1-piperazinyl]-N-[3-(1-pyrrolidinyl)phenyl]-benzamide]
14 | 206.3 to 209.4 | 646 | – | O=C(NCc1cccc(N2CCCC2)c1)c1ccc(N2CCN(C(=O)Cc3ccc(CN4CCCC4)cc3Cl)CC2)cc1 [354-Class D, 4-[4-[[2-chloro-4-(1-pyrrolidinylmethyl)phenyl]acetyl]-1-piperazinyl]-N-[[3-(1-pyrrolidinyl)phenyl]methyl]-benzamide]
15 | – | – | 6.45 | COc1ccc(CC(=O)Nc2ccc(N3CCN(C(=O)C(O)c4ccc(CN5CCCC5)cc4Cl)CC3)cc2)cc1 (stereo not shown) [352-Class D, N-[4-[4-[[2-chloro-4-(1-pyrrolidinylmethyl)phenyl]hydroxyacetyl]-1-piperazinyl]phenyl]-4-methoxy-benzeneacetamide]
16 | 153.3 to 155.2 | 912 | – | COc1ccc(CC(=O)Nc2ccc(N3CCN(C(=O)Cc4ccc(CN5CCCC5)cc4Cl)CC3)cc2)cc1 [355-Class D, N-[4-[4-[[2-chloro-4-(1-pyrrolidinylmethyl)phenyl]acetyl]-1-piperazinyl]phenyl]-4-methoxy-benzeneacetamide]
